In patent publication US11739101B2, “Bifunctional degraders of hematopoietic progenitor kinase and therapeutic uses thereof” (Nurix Therapeutics, Inc., priority 2020, dated 2023):

Target: T1, HPK1 (Homo sapiens, UniProt Q92918)
T1 construct: A HiBiT tag was introduced by CRISPR on the N terminus of HPK1 in Jurkat cells; host or cells: Jurkat (ATCC TIB-152), monoclonal CRISPR HiBiT knock-in line
Test: HPK1 Cellular HiBiT Degradation Assay
Type: cell-based
Details: HiBiT-tagged HPK1 Jurkat cells, 24 hours, 10 uM to 0.1 nM; Dmax = 100 minus lowest % HPK1 remaining vs DMSO vehicle
Experimental: HiBiT HPK1 Jurkat cell lines were used to evaluate the total protein levels of HPK1 in a robust human cellular high throughput format. The level of HPK1 remaining following treatment with HPK1 CTMs is reported as Dmax (maximum degradation) achieved at 24 hours when compared to vehicle treated controls. […] These decreases were not a result of cytotoxicity measured by a parallel viability assessment (CTG). See also Table 1.
A HiBiT tag was introduced by CRISPR on the N terminus of HPK1 in Jurkat cells (ATCC® TIB-152) to allow quantitation of HPK1 protein levels in a monoclonal human cell line. Cells were plated at 1×10^6 cells/mL, 30 uL/well (3×10^4 cells/well) in complete RPMI 1640 (10% heat inactivated FBS, 1% L-glutamine) in 384-well assay plates (Corning, cat. no. 3570). HPK1 chimeric targeting molecules (CTMs) were added in an 11-point dilution series (3.16-fold) with a final assay concentration range of 10 uM to 0.1 nM. The parental Jurkat cell line, with no HiBiT insertion, was included in the assay as a background control. Cells treated with a DMSO vehicle control were used to determine the maximum signal defining 100% HPK1 in the cell. Cells were incubated for 24 hours at 37° C./5% CO2. Following incubation, 30 uL of complete Nano-Glo HiBiT Lytic Detection Reagent (Promega cat. no. N3040) was added. Cells were incubated for 10 minutes at room temperature and luminescence was read on an EnVision plate reader (Perkin Elmer, 0.1 sec per well). Parallel plates were assessed for viability using Cell Titer Glo (Promega) and read on an EnVision plate reader to ensure results were not the effect of cytotoxicity. Percent HPK1 remaining per sample was calculated as follows: […]
% HPK1 remaining values were plotted as a function of compound concentration and curves were fit using the Prism (GraphPad) equation “log(inhibitor) vs response−Variable slope (four parameters)”. Dmax values were calculated by identifying the lowest % remaining and subtracting from 100. Dmax values are provided in Table 1, wherein A>65%, 45%≤B≤65% and C<45%.

T1 sequence (Q92918 whole entry): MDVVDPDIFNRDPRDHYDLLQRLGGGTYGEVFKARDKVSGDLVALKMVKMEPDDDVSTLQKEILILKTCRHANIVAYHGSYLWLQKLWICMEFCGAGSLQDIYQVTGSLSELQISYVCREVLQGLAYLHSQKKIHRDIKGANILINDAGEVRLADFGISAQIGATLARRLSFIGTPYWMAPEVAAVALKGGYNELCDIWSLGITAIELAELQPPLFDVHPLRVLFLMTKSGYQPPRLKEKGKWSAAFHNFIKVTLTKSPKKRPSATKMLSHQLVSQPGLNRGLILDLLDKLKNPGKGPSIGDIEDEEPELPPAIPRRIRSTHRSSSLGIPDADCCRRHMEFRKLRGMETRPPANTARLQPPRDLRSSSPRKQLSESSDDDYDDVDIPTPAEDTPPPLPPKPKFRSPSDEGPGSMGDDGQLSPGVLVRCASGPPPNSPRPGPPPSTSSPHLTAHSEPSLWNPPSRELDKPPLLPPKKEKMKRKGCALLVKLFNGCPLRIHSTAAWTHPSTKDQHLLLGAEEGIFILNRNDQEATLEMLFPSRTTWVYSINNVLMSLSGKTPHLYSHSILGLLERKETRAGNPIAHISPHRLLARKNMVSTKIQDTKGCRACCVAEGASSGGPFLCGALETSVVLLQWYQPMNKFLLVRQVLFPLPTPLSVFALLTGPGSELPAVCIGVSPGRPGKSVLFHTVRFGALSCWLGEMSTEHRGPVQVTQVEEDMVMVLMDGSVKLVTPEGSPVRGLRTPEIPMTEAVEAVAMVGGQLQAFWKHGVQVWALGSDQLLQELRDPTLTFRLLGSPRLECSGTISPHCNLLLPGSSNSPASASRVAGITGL

SMILES	Cellular HPK1 HiBiT: Dmax (%)	Dmax [%]
Cc1cc(F)c(Nc2nc(-c3ccc4c(c3)N(C3CC(N5CCCCC5)C3)C(=O)C43CCN(C(=O)c4ccc(C(=O)N(C)C5CCC(Nc6cccc7c6C(=O)N(C6CCC(=O)NC6=O)C7=O)CC5)cc4)CC3)cc3ncn(C(C)C)c23)cc1C(=O)NC(C)C [Example 61, 4-fluoro-2-methyl-5-({6-[1′-(4-{methyl[(1R,4R)-4-{[2-(2,6-dioxopiperidin-3-yl)-1,3-dioxo-2,3-dihydro-1H-isoindol-4-yl]amino}cyclohexyl]carbamoyl}benzoyl)-2-oxo-1-[(1s,3s)-3-(piperidin-1-yl)cyclobutyl]-1,2-dihydrospiro[indole-3,4′-piperidin]-6-yl]-3-(propan-2-yl)-3H-imidazo[4,5-c]pyridin-4-yl}amino)-N-(propan-2-yl)benzamide]	A (A>65%)	–
Cc1cc(F)c(Nc2nc(-c3ccc4c(c3)N(C3CC(N5CCCCC5)C3)C(=O)C43CCN(C(=O)CN4CC5(CCN(c6ccc7c(c6)C(=O)N(C6CCC(=O)NC6=O)C7=O)CC5)C4)CC3)cc3ncn(C(C)C)c23)cc1C(=O)NC(C)C (stereo not shown) [Example 28, 5-[(6-{1′-[2-(7-{2-[2,6-dioxopiperidin-3-yl]-1,3-dioxo-2,3-dihydro-1H-isoindol-5-yl}-2,7-diazaspiro[3.5]nonan-2-yl)acetyl]-2-oxo-1-[(1s,3s)-3-(piperidin-1-yl)cyclobutyl]-1,2-dihydrospiro[indole-3,4′-piperidin]-6-yl}-3-(propan-2-yl)-3H-imidazo[4,5-c]pyridin-4-yl)amino]-4-fluoro-2-methyl-N-(propan-2-yl)benzamide]	–	< 45
Cc1cc(F)c(Nc2nc(-c3ccc4c(c3)N([C@H]3C[C@@H](N5CCCCC5)C3)C(=O)C43CCN(C(=O)[C@H]4CCN(C[C@H]5CC[C@H](Nc6cccc7c6C(=O)N(C6CCC(=O)NC6=O)C7=O)CC5)C4)CC3)cc3ncn(C(C)C)c23)cc1C(=O)NC(C)C (stereo partly drawn) [Example 73, 4-fluoro-2-methyl-5-[(6-{2-oxo-1′-[(3R)-1-{[(1R,4R)-4-({2-[2,6-dioxopiperidin-3-yl]-1,3-dioxo-2,3-dihydro-1H-isoindol-4-yl}amino)cyclohexyl]methyl}pyrrolidine-3-carbonyl]-1-[(1s,3s)-3-(piperidin-1-yl)cyclobutyl]-1,2-dihydrospiro[indole-3,4′-piperidin]-6-yl}-3-(propan-2-yl)-3H-imidazo[4,5-c]pyridin-4-yl)amino]-N-(propan-2-yl)benzamide]	–	> 65
Cc1cc(F)c(Nc2nc(-c3ccc4c(c3)N([C@H]3C[C@@H](N5CCCCC5)C3)C(=O)C43CCN(C(=O)CCOCCOCCOCCOc4cc(-c5scnc5C)ccc4CNC(=O)[C@H]4C[C@H](O)CN4C(=O)[C@H](NC(=O)C4(F)CC4)C(C)(C)C)CC3)cc3ncn(C(C)C)c23)cc1C(=O)NC(C)C [Example 9, (2S,4R)—N-(2-(2-(2-(2-(3-(6-(4-((2-fluoro-5-(isopropylcarbamoyl)-4-methylphenyl)amino)-3-isopropyl-3H-imidazo[4,5-c]pyridin-6-yl)-2-oxo-1-((1s,3s)-3-(piperidin-1-yl)cyclobutyl)spiro[indoline-3,4′-piperidin]-1′-yl)-3-oxopropoxy)ethoxy)ethoxy)ethoxy)-4-(4-methylthiazol-5-yl)benzyl)-1-((S)-2-(1-Fluorocyclopropane-1-carboxamido)-3,3-dimethylbutanoyl)-4-hydroxypyrrolidine-2-carboxamide]	–	< 45
Cc1cc(F)c(Nc2nc(-c3ccc4c(c3)N([C@H]3C[C@@H](N5CCCCC5)C3)C(=O)C43CCN(C(=O)c4ccc(OC5CCN(c6ccc7c(c6)C(=O)N(C6CCC(=O)NC6=O)C7=O)CC5)cc4)CC3)cc3ncn(C(C)C)c23)cc1C(=O)NC(C)C (stereo partly shown) [Example 64, 5-{[6-(1′-{4-[(1-{2-[2,6-dioxopiperidin-3-yl]-1,3-dioxo-2,3-dihydro-1H-isoindol-5-yl}piperidin-4-yl)oxy]benzoyl}-2-oxo-1-[(1s,3s)-3-(piperidin-1-yl)cyclobutyl]-1,2-dihydrospiro[indole-3,4′-piperidin]-6-yl)-3-(propan-2-yl)-3H-imidazo[4,5-c]pyridin-4-yl]amino}-4-fluoro-2-methyl-N-(propan-2-yl)benzamide]	–	> 65
Cc1cc(F)c(Nc2nc(-c3ccc4c(c3)N([C@H]3C[C@@H](N5CCCCC5)C3)C(=O)C43CCN(C(=O)CN4CCN(CCCc5cccc6c5C(=O)N(C5CCC(=O)NC5=O)C6=O)CC4)CC3)cc3ncn(C(C)C)c23)cc1C(=O)NC(C)C (stereo partly shown) [Example 21, 5-{[6-(1′-{2-[4-(3-{2-[2,6-dioxopiperidin-3-yl]-1,3-dioxo-2,3-dihydro-1H-isoindol-4-yl}propyl)piperazin-1-yl]acetyl}-2-oxo-1-[(1s,3s)-3-(piperidin-1-yl)cyclobutyl]-1,2-dihydrospiro[indole-3,4′-piperidin]-6-yl)-3-(propan-2-yl)-3H-imidazo[4,5-c]pyridin-4-yl]amino}-4-fluoro-2-methyl-N-(propan-2-yl)benzamide]	–	< 45
Cc1cc(F)c(Nc2nc(-c3ccc4c(c3)N([C@H]3C[C@@H](N5CCCCC5)C3)C(=O)C43CCN(C(=O)c4ccc(S(=O)(=O)N5CCN(c6ccc7c(c6)C(=O)N(C6CCC(=O)NC6=O)C7=O)CC5)cc4)CC3)cc3ncn(C(C)C)c23)cc1C(=O)NC(C)C (stereo partly shown) [Example 58, 5-[(6-{1′-[4-({4-[2-(2,6-dioxopiperidin-3-yl)-1,3-dioxo-2,3-dihydro-1H-isoindol-5-yl]piperazin-1-yl}sulfonyl)benzoyl]-2-oxo-1-[(1s,3s)-3-(piperidin-1-yl)cyclobutyl]-1,2-dihydrospiro[indole-3,4′-piperidin]-6-yl}-3-(propan-2-yl)-3H-imidazo[4,5-c]pyridin-4-yl)amino]-4-fluoro-2-methyl-N-(propan-2-yl)benzamide]	–	< 45
Cc1cc(F)c(Nc2nc(-c3ccc4c(c3)N([C@H]3C[C@@H](N5CCCCC5)C3)C(=O)C43CCN(C(=O)[C@H]4CC[C@@H](C(=O)N5CCC(Nc6cccc7c6C(=O)N(C6CCC(=O)NC6=O)C7=O)CC5)CC4)CC3)cc3ncn(C(C)C)c23)cc1C(=O)NC(C)C (stereo partly drawn) [Example 50, 4-fluoro-2-methyl-5-[(6-{2-oxo-1-[(1s,3s)-3-(piperidin-1-yl)cyclobutyl]-1′-[(1S,4s)-4-[4-({2-[2,6-dioxopiperidin-3-yl]-1,3-dioxo-2,3-dihydro-1H-isoindol-4-yl}amino)piperidine-1-carbonyl]cyclohexanecarbonyl]-1,2-dihydrospiro[indole-3,4′-piperidin]-6-yl}-3-(propan-2-yl)-3H-imidazo[4,5-c]pyridin-4-yl)amino]-N-(propan-2-yl)benzamide]	–	45 to 65
Cc1cc(F)c(Nc2nc(-c3ccc4c(c3)N([C@H]3C[C@@H](N5CCCCC5)C3)C(=O)C43CCN(C(=O)[C@H]4CC[C@H](C(=O)N5CCC(Nc6cccc7c6C(=O)N(C6CCC(=O)NC6=O)C7=O)CC5)CC4)CC3)cc3ncn(C(C)C)c23)cc1C(=O)NC(C)C (stereo partly drawn) [Example 51, 4-fluoro-2-methyl-5-[(6-{2-oxo-1′-[(R,4R)-4-[4-({2-[2,6-dioxopiperidin-3-yl]-1,3-dioxo-2,3-dihydro-1H-isoindol-4-yl}amino)piperidine-1-carbonyl]cyclohexanecarbonyl]-1-[(1s,3s)-3-(piperidin-1-yl)cyclobutyl]-1,2-dihydrospiro[indole-3,4′-piperidin]-6-yl}-3-(propan-2-yl)-3H-imidazo[4,5-c]pyridin-4-yl)amino]-N-(propan-2-yl)benzamide]	–	45 to 65
Cc1cc(F)c(Nc2nc(-c3ccc4c(c3)N([C@H]3C[C@@H](N5CCCCC5)C3)C(=O)C43CCN(C(=O)C4CCN(C(=O)C5CC(Nc6cccc7c6C(=O)N(C6CCC(=O)NC6=O)C7=O)C5)C4)CC3)cc3ncn(C(C)C)c23)cc1C(=O)NC(C)C (stereo partly shown) [Example 30, 4-fluoro-2-methyl-5-[(6-{2-oxo-1-[(1s,3s)-3-(piperidin-1-yl)cyclobutyl]-1′-[1-[(1s,3s)-3-({2-[2,6-dioxopiperidin-3-yl]-1,3-dioxo-2,3-dihydro-1H-isoindol-4-yl}amino)cyclobutanecarbonyl]pyrrolidine-3-carbonyl]-1,2-dihydrospiro[indole-3,4′-piperidin]-6-yl}-3-(propan-2-yl)-3H-imidazo[4,5-c]pyridin-4-yl)amino]-N-(propan-2-yl)benzamide]	–	< 45
